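Method: 48-hour compound exposure of cells in 96-well plates, five concentrations, linear interpolation of endpoints. GI50 = concentration required for 50% inhibition of growth.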 Calls of active or inactive are those of the source. Cut-off read from the data, not from the text of the source: active = GI50 up to about 1.1 µM and inactive = higher.
Key:
Assay in all cases: DTP human tumour cell line panel, 48 h
786-0 = tested on: 786-0
A498 = tested on: A498
A549 = tested on: A549
ACHN = tested on: ACHN
BT-549 = tested on: BT-549
CAKI-1 = tested on: CAKI-1
COLO 205 = tested on: COLO 205
DU-145 = tested on: DU-145
EKVX = tested on: EKVX
HCT-116 = tested on: HCT-116
HCT-15 = tested on: HCT-15
HOP-62 = tested on: HOP-62
HOP-92 = tested on: HOP-92
HT-29 = tested on: HT-29
Hs-578T = tested on: Hs-578T
IGROV-1 = tested on: IGROV-1
K562 = tested on: K562
KM12 = tested on: KM12
M14 = tested on: M14
MCF7 = tested on: MCF7
MDA-MB-231 = tested on: MDA-MB-231
MDA-MB-435 = tested on: MDA-MB-435
MDA-N = tested on: MDA-N
Malme-3M = tested on: Malme-3M
NCI-H226 = tested on: NCI-H226
NCI-H23 = tested on: NCI-H23
NCI-H460 = tested on: NCI-H460
NCI-H522 = tested on: NCI-H522
NCI/ADR-RES = tested on: NCI/ADR-RES
OVCAR-3 = tested on: OVCAR-3
OVCAR-4 = tested on: OVCAR-4
OVCAR-5 = tested on: OVCAR-5
OVCAR-8 = tested on: OVCAR-8
PC-3 = tested on: PC-3
RPMI-8226 = tested on: RPMI-8226
RXF 393 = tested on: RXF 393
SF-268 = tested on: SF-268
SF-295 = tested on: SF-295
SF-539 = tested on: SF-539
SK-MEL-28 = tested on: SK-MEL-28
SK-MEL-2 = tested on: SK-MEL-2
SK-MEL-5 = tested on: SK-MEL-5
SK-OV-3 = tested on: SK-OV-3
SN12C = tested on: SN12C
SNB-19 = tested on: SNB-19
SNB-75 = tested on: SNB-75
SW-620 = tested on: SW-620
T47D = tested on: T47D
TK-10 = tested on: TK-10
U-251 = tested on: U-251
UACC-257 = tested on: UACC-257
UACC-62 = tested on: UACC-62
UO-31 = tested on: UO-31

SMILES: Cc1ccc(C2=Nc3ccccc3SC(c3cccc([N+](=O)[O-])c3)C2)cc1 (stereo not drawn)
- GI50 (786-0): 6.3 µM (inactive)
- GI50 (A498): > 100 µM (inactive)
- GI50 (A549): 26.2 µM (inactive)
- GI50 (ACHN): > 100 µM (inactive)
- GI50 (BT-549): 15.7 µM (inactive)
- GI50 (CAKI-1): 51.4 µM (inactive)
- GI50 (COLO 205): 58.7 µM (inactive)
- GI50 (DU-145): 13.1 µM (inactive)
- GI50 (EKVX): 49.7 µM (inactive)
- GI50 (HCT-116): 3.6 µM (inactive)
- GI50 (HCT-15): 48.1 µM
- GI50 (HOP-62): 27.6 µM (inactive)
- GI50 (HOP-92): 10.4 µM (inactive)
- GI50 (HT-29): 5.96 µM (inactive)
- GI50 (Hs-578T): 14.3 µM (inactive)
- GI50 (IGROV-1): 8.34 µM (inactive)
- GI50 (K562): 6.56 µM (inactive)
- GI50 (KM12): 8.04 µM (inactive)
- GI50 (M14): 23.9 µM (inactive)
- GI50 (MCF7): 4.08 µM (inactive)
- GI50 (MDA-MB-231): 40.6 µM (inactive)
- GI50 (MDA-MB-435): 13.1 µM (inactive)
- GI50 (MDA-N): 15.7 µM (inactive)
- GI50 (Malme-3M): 26.7 µM (inactive)
- GI50 (NCI-H226): > 100 µM (inactive)
- GI50 (NCI-H23): 11.8 µM (inactive)
- GI50 (NCI-H460): 27.9 µM (inactive)
- GI50 (NCI-H522): 9.59 µM (inactive)
- GI50 (NCI/ADR-RES): 59.6 µM (inactive)
- GI50 (OVCAR-3): 8.59 µM (inactive)
- GI50 (OVCAR-4): 27.4 µM (inactive)
- GI50 (OVCAR-5): > 100 µM (inactive)
- GI50 (OVCAR-8): 10.2 µM (inactive)
- GI50 (PC-3): 10.2 µM (inactive)
- GI50 (RPMI-8226): 2.38 µM (inactive)
- GI50 (RXF 393): 16.4 µM (inactive)
- GI50 (SF-268): 16.2 µM (inactive)
- GI50 (SF-295): 28.4 µM (inactive)
- GI50 (SF-539): 3.8 µM (inactive)
- GI50 (SK-MEL-28): > 100 µM (inactive)
- GI50 (SK-MEL-2): 34 µM (inactive)
- GI50 (SK-MEL-5): 15.4 µM (inactive)
- GI50 (SK-OV-3): 31.1 µM (inactive)
- GI50 (SN12C): 34.1 µM (inactive)
- GI50 (SNB-19): 26.9 µM (inactive)
- GI50 (SNB-75): 11.4 µM (inactive)
- GI50 (SW-620): 3.18 µM (inactive)
- GI50 (T47D): 10.7 µM (inactive)
- GI50 (TK-10): 14.5 µM (inactive)
- GI50 (U-251): 4.59 µM (inactive)
- GI50 (UACC-257): 24.7 µM (inactive)
- GI50 (UACC-62): > 100 µM (inactive)
- GI50 (UO-31): 5.4 µM (inactive)

— ChEMBL document CHEMBL1201862, “PubChem BioAssay data set” (2004)
